Laboratory results taken from US6043386A, “Non-calcemic, antiproliferative, transcriptionally active 24-fluorinated hybrid analogs of 1α,-25-dihydroxy vitamin D3” (John Hopkins University, priority 1999, dated 2000).

Experiments:
murine keratinocytes = test: in vitro antiproliferative activity in murine keratinocytes (FIG. 1); type: cell-based; settings: for antiproliferative activities: 1α,3β vs. 1β,3α diastereomers; for antiproliferative activity relative to 1,25D3: even at physiologically relevant 7 nM concentrations
Method: Each of these new hybrid analogs (Structures 3 and 4 of Scheme I) is evaluated initially for in vitro antiproliferative activity in murine keratinocytes, using the protocol described in Posner et al., J. Med. Chem. 1992, 35, pp. 3280-3287. The procedure utilized is described as follows:
(§1) Murine B16 malignant melanoma cells are grown and propagated in RPMI medium supplemented with 10% fetal bovine serum, L-glutamine, penicillin, and streptomycin and incubated at 37° C. in 5% CO2. For proliferation studies, cells are washed with PBS, trypsinized, and suspended in 8 ml of supplemented RPMI medium. The cell density is then determined using a hemacytometer and cells are resuspended in RPMI at 10,000 cells/cm^3. One ml of cell suspension (10,000 cells) is added to each well of a Falcon 24 Well Flat Bottom Tissue Culture Plate (Becton-Dickinson, Lincoln Park, N.J.). Plates are incubated for 24 hours to allow for cell attachment. The medium is then removed and replaced with fresh RPMI medium containing either 0.4% solvent (isopropanol) or vitamin D analog at concentrations ranging from 1-1000 nM in triplicate. When control wells near confluence, cells are washed with PBS, trypsinized, and suspended in 10 ml of Isoton II Coulter Balanced EIectrolyte Solution in FISHERbrand Dilu-Vial cuvettes. Cell number is then determined for each well as an average of two readings on a ZM Coulter Counter. Results are expressed as the average cell number for each vitamin D analog treatment group divided by the intital cell number (N/N0). The average standard deviation of the N/N0 cell number measurements was 0.21 in FIG. 1 and 2.1 in FIG. 2.

[1] = body weight gain in rats treated daily for one week; type: in vivo, rat; settings: 1 microgram per kg per os, seven consecutive days
Method: (§2) Male F344 rats (150 g) are housed individually in glass metabolism cages and received food and water ad libitum. After several days acclimation, rats receive 1 microgram per kg body weight of test compound per os for seven consecutive days in 150 microliters of propylene glycol/0.05M Na2 HPO4 (80:20). Urine samples, which are collected on ice, were centrifuged at 650×g for 10 min, adjusted to pH 6.0 as necessary, and assayed for calcium content spectrophotometrically at 575 nm using reagents and standards from Sigma Calcium Kit #587.

vitamin D receptor = test: in vitro vitamin D receptor-mediated transcriptional activity in ROS 17/2.8 cells (growth hormone reporter); type: cell-based; settings: 48 h, rat osteosarcoma ROS 17/2.8 cells, vitamin D responsive element of human osteocalcin gene, 2 days, read-out: ED50 (transcriptional potency)
Method: The procedure utilized is described as follows:
Transfections and transcriptional activity of the analogs.
Rat osteosarcoma ROS 17/2.8 cells are maintained in 50% Dulbecco's modified Eagle medium (DMEM) and 50% F12 nutrient mixture supplemented with 10% fetal bovine serum. Forty eight hours before transfections, the cells are plated in 35-mm dishes at a density of 10^5 /dish in DMEM and 10% fetal bovine serum. ROS 17/2.8 cells are transfected with 2 μg of plasmid containing the vitamin D responsive element from the human osteocalcin gene ([…]) attached to the thymidine kinase promoter/growth hormone fusion gene. […] Medium samples for measurements of reporter gene expression (growth hormone) are collected 2 days after transfection. Growth hormone is measured by a radioimmunoassay as described by the manufacturer (Nichols Institute, San Juan Capistrano, Calif.).

Male F344 rats = test: Determination of urinary calcium levels / hypercalcemic effects in vivo (FIG. 3); parameters: species or system rat; settings: 1 microgram per kg per os, seven consecutive days
Method: Because of their high antiproliferative and transcriptional activities in vitro, fluorinated hybrid analogs, Structures 3b and 4b, are evaluated for hypercalcemic effects in vivo. The procedure utilized is described as follows:
Determination of urinary calcium levels.
as §2

[2] = test system: Murine B16 malignant melanoma cells; test: Antiproliferative assays using malignant melanoma cells (FIG. 2); type: cell-based; settings: even at 1 nM concentration
Method: Antiproliferative assays using malignant melanoma cells
as §1, with “The average standard deviation of the N/N0 cell number measurements was 0.21 in FIG. 1 and 2.1 in FIG. 2.” left out

| Compound | antiproliferative activities (murine keratinocytes) | suppression of body weight gain [1] | EC50 (vitamin D receptor) [pM] | calcium excretion into the urine (Male F344 rats) | antiproliferative activity relative to 1,25D3 (murine keratinocytes) | antiproliferative potency relative to 1,25D3 [2] |
| --- | --- | --- | --- | --- | --- | --- |
| C=C1/C(=C\C=C2/CCC[C@]3(C)C([C@H](C)CCC(F)(F)C(C)(C)O)=CC[C@@H]23)C[C@@H](O)C[C@@H]1CO [Structure 3a] | much less potent |  |  |  |  |  |
| C=C1/C(=C\C=C2/CCC[C@]3(C)C([C@H](C)CCC(F)(F)C(O)(CC)CC)=CC[C@@H]23)C[C@H](O)C[C@H]1CO [Structure 4b] | significant antiproliferative activities | not observed | 50 | no calcium elevation above control | at least equal to that of 1,25D3 | more potent antiproliferative agents than 1,25D3 |
| C=C1/C(=C\C=C2/CCC[C@]3(C)[C@@H]([C@H](C)CCCC(C)(C)O)CC[C@@H]23)C[C@@H](O)C[C@@H]1O [calcitriol, 1α,25-dihydroxy vitamin D3, reference compound] |  | suppression of body weight gain |  | marked excretion of calcium into the urine |  |  |
| C=C1/C(=C\C=C2/CCC[C@]3(C)C([C@H](C)CCC(F)(F)C(C)(C)O)=CC[C@@H]23)C[C@H](O)C[C@H]1CO [Structure 3b] | significant antiproliferative activities | not observed | 200 | no calcium elevation above control | at least equal to that of 1,25D3 | more potent antiproliferative agents than 1,25D3 |
| C=C1/C(=C\C=C2/CCC[C@]3(C)C([C@H](C)CCC(F)(F)C(O)(CC)CC)=CC[C@@H]23)C[C@@H](O)C[C@@H]1CO [Structure 4a] | much less potent |  |  |  |  |  |
